One assay concerns the target T1, purified human FAS (Homo sapiens, UniProt P49327).
T1 construct: Human FAS was purified from cultured ZR-75-1 human breast cancer cells obtained from the American Type Culture Collection; endogenous in cells; host or cells: ZR-75-1 human breast cancer cells (ATCC); enzyme purified by PEG precipitation and Mono Q chromatography
The experiment in a line: FAS enzymatic activity (malonyl-CoA dependent NADPH oxidation). Format: biochemical. To be noted: purified FAS from ZR-75-1 cells, OD340. On the procedure:
Human FAS was purified from cultured ZR-75-1 human breast cancer cells obtained from the American Type Culture Collection. The procedure, adapted from Linn et al., 1981, and Kuhajda et al., 1994, utilizes hypotonic lysis, successive polyethyleneglycol (PEG) precipitations, and anion exchange chromatography. ZR-75-1 cells are cultured at 37° C. with 5% CO2 in RPMI culture medium with 10% fetal bovine serum, penicillin and streptomycin.
Ten T150 flasks of confluent cells are lysed with 1.5 ml lysis buffer (20 mM Tris-HCl, pH 7.5, 1 mM EDTA, 0.1 mM phenylmethanesulfonyl fluoride (PMSF), 0.1% Igepal CA-630) and dounce homogenized on ice for 20 strokes. The lysate is centrifuged in JA-20 rotor (Beckman) at 20,000 rpm for 30 minutes at 4° C. and the supernatant is brought to 42 ml with lysis buffer. A solution of 50% PEG 8000 in lysis buffer is added slowly to the supernatant to a final concentration of 7.5%. After rocking for 60 minutes at 4° C., the solution is centrifuged in JA-20 rotor (Beckman) at 15,000 rpm for 30 minutes at 4° C. Solid PEG 8000 is then added to the supernatant to a final concentration of 15%. After the rocking and centrifugation is repeated as above, the pellet is resuspended overnight at 4° C. in 10 ml of Buffer A (20 mM K2HPO4, pH 7.4). After […] filtration, the protein solution is applied to a Mono Q 5/5 anion exchange column (Pharmacia). The column is washed for 15 minutes with buffer A at 1 ml/minute, and bound material is eluted with a linear 60-ml gradient over 60 minutes to 1 M KCl. FAS (MW˜270 kD) typically elutes at 0.25 M KCl in three 0.5 ml fractions identified using 4-15% SDS-PAGE with Coomassie G250 stain (Bio-Rad). FAS protein concentration is determined using the Coomassie Plus Protein Assay Reagent (Pierce) according to manufacturer's specifications using BSA as a standard. This procedure results in substantially pure preparations of FAS (>95%) as judged by Coomassie-stained gels.
FAS activity is measured by monitoring the malonyl-CoA dependent oxidation of NADPH spectrophotometrically at OD340 in 96-well plates (Dils et al and Arslanian et al, 1975). Each well contains 2 μg purified FAS, 100 mM K2HPO4, pH 6.5, 1 mM dithiothreitol (Sigma), and 187.5 μM β-NADPH (Sigma). Stock solutions of inhibitors are prepared in DMSO at 2, 1, and 0.5 mg/ml resulting in final concentrations of 20, 10, and 5 μg/ml when 1 μl of stock is added per well. For each experiment, cerulenin (Sigma) is run as a positive control along with DMSO controls, inhibitors, and blanks (no FAS enzyme) all in duplicate.
The assay is performed on a Molecular Devices SpectraMax Plus Spectrophotometer. The plate containing FAS, buffers, inhibitors, and controls are placed in the spectrophotometer heated to 37° C. Using the kinetic protocol, the wells are blanked on duplicate wells containing 100 μl of 100 mM K2HPO4, pH 6.5 and the plate is read at OD340 at 10 sec intervals for 5 minutes to measure any malonyl-CoA independent oxidation of NADPH. The plate is removed from the spectrophotometer and malonyl-CoA (67.4 μM, final concentration per well) and […] (61.8 μM, final concentration per well) are added to each well except to the blanks. The plate is read again as above with the kinetic protocol to measure the malonyl-CoA dependent NADPH oxidation. The difference between the ΔOD340 for the malonyl-CoA dependent and non-malonyl-CoA dependent NADPH oxidation is the specific FAS activity. Because of the purity of the FAS preparation, non-malonyl-CoA dependent NADPH oxidation is negligible.
The concentration of compound yielding 50% inhibition of FAS is the IC50. Graphs of ΔOD340 versus time are plotted by the SOFTmax PRO software (Molecular Devices) for each compound concentration. Computation of linear regression, best-fit line, r^2, and 95% confidence intervals are calculated using Prism Version 3.0 (Graph Pad Software).

Assay [1] has as its system MCF-7 human breast cancer cells. The experiment in a line: XTT cytotoxicity assay (M / MCF7). The format is cell-based. The settings on record: MCF-7 cells, 72 hours. How it is done: The XTT assay is a non-radioactive alternative for the [^51Cr] release cytotoxicity assay. XTT is a tetrazolium salt that is reduced to a formazan dye only by metabolically active, viable cells. The reduction of XTT is measured spectrophotometrically as OD490-OD650. To measure the cytotoxicity of specific compounds against cancer cells, 9×10^3 MCF-7 human breast cancer cells, obtained from the American Type Culture Collection are plated per well in 96 well plates in DMEM medium with 10% fetal bovine serum, insulin, penicillin, and streptomycin. Following overnight culture at 37° C. and 5% CO2, the compounds to be tested, dissolved in DMSO, are added to the wells in 1 μl volume at the following concentrations: 80, 40, 20, 10, 5, 2.5, 1.25, and 0.625 μg/ml in triplicate. Additional concentrations are tested if required. 1 μl of DMSO is added to triplicate wells are the vehicle control. C75 is run at 40, 20, […], and 5 μg/ml in triplicate as positive controls. After 72 hours of incubation, cells are incubated for 4 hours with the XTT reagent as per manufacturer's instructions (Cell Proliferation Kit 11 (XTT) Roche). Plates are read at OD490 and OD650 on a Molecular Devices SpectraMax Plus Spectrophotometer. Three wells containing the XTT reagent without cells serve as the plate blank. XTT data are reported as OD490-OD650. Averages and standard error of the mean are computed using SOFTmax Pro software ([…]). The IC50 for the compounds is defined as the concentration of drug leading to a 50% reduction in OD490-OD650 compared to controls. The OD490-OD650 are computed by the SOFTmax PRO software (Molecular Devices) for each compound concentration. IC50 is calculated by linear regression, plotting the FAS activity as percent of control versus drug concentrations. Linear regression, best-fit line, r^2, and 95% confidence intervals are determined using Prism Version 3.0 (Graph Pad Software).
For orientation: Formazan colour is commonly taken as a measure of viable cells.

Converted amounts (≈) assume the structure as drawn.

T1 sequence (P49327 whole entry): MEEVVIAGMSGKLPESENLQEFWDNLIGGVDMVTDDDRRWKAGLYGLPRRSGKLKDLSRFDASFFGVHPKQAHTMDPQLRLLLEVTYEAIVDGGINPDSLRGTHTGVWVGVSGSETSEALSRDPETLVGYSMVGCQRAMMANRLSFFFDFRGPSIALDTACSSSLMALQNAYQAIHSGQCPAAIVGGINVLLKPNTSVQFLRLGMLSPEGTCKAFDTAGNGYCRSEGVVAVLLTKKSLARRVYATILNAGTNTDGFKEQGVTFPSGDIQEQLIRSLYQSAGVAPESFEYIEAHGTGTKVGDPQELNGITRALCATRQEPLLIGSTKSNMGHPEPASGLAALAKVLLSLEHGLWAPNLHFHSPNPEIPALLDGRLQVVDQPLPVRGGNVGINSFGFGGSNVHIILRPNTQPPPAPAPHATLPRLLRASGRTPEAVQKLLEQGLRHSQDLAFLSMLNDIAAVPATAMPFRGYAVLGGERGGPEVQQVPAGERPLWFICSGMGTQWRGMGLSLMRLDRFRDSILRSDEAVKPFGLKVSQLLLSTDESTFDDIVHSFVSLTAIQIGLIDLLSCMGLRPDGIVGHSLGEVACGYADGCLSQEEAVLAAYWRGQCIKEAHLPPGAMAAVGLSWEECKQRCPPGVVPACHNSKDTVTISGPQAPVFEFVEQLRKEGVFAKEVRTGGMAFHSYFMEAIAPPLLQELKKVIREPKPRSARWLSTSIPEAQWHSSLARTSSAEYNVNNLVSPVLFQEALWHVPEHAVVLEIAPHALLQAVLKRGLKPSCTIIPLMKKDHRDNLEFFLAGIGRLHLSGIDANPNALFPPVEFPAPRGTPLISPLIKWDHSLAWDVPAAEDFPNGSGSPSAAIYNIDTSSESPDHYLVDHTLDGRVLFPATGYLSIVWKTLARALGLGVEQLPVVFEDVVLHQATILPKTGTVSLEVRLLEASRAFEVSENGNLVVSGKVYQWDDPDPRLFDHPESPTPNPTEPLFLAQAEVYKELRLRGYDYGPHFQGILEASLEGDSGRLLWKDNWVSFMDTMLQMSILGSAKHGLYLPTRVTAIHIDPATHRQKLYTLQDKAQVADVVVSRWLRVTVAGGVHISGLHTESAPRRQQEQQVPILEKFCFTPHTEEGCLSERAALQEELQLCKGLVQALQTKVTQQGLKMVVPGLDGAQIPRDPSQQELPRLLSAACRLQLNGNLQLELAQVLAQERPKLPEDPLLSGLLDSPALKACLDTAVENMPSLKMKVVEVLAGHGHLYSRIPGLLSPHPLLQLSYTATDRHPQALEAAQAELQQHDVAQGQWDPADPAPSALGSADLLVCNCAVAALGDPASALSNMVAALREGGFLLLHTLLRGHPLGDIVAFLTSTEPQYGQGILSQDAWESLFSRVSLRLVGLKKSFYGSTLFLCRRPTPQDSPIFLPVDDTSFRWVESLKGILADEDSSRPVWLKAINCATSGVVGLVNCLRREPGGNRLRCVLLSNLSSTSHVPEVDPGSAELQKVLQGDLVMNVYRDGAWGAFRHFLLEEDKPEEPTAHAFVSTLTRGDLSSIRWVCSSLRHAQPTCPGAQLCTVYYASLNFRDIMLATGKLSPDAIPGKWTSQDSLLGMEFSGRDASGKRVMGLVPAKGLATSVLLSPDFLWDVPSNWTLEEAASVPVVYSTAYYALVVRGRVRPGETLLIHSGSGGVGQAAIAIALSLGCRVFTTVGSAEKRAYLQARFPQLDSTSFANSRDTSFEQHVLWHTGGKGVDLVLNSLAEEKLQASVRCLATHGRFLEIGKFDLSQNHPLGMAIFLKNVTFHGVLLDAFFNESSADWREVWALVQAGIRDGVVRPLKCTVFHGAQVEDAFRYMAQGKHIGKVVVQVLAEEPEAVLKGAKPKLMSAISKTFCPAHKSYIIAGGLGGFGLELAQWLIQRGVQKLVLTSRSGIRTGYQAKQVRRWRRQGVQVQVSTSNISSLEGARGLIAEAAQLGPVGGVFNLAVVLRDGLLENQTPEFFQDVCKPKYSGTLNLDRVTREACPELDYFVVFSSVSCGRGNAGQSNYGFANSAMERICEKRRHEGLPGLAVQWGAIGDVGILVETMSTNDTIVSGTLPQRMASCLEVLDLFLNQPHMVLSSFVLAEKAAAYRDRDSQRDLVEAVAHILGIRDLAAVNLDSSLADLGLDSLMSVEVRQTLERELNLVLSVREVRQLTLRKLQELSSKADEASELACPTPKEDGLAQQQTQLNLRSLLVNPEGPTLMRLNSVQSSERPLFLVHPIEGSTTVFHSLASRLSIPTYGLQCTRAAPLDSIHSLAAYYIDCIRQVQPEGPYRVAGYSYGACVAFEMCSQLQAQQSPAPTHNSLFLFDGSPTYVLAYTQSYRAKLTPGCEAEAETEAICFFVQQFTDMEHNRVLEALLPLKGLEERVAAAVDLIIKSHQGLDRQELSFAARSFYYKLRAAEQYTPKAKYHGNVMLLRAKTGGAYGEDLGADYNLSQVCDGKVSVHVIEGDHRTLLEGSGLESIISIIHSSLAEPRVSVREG

For the molecule `COC(=O)c1sc(C(=O)O)cc1O`, at purified human FAS, the “FAS (IC50)” value was “Neg”. The IC50 – broadly, the midpoint of a concentration-inhibition curve – in assay [1] is > 80 µg/mL.
For `CCCCCCCCNC(=O)c1cc(O)c(C(=O)OC)s1` the same measures were “Neg” and 47.5 µg/mL (≈ 152 µM).
The corresponding values for `C=CCNC(=O)c1cc(O)c(C(=O)OC)s1` are “Neg” and > 80 µg/mL.
As for `CCCCCCCCNNC(=O)c1cc(O)c(C(=O)OC)s1`, at purified human FAS, the “FAS (IC50)” value is listed as “Neg”. For the same molecule, the IC50 in assay [1] is 73.3 µg/mL (≈ 223 µM).
As to `COC(=O)c1sc(C(=O)NNc2ccc(Cl)cc2)cc1O`, the IC50 is 230 µM at purified human FAS and > 80 µg/mL in assay [1].
`CCCCCCCCNC(=O)c1cc(O)cs1`: at purified human FAS, the “FAS (IC50)” value was “Neg”. For the same molecule, in assay [1], the IC50 is 9.9 µg/mL (≈ 38.8 µM).

Values taken from patent US20100029752A1, “NOVEL COMPOUNDS, PHARMACEUTICAL COMPOSITIONS CONTAINING SAME, AND METHODS OF USE FOR SAME” (priority 2005, published 2010).
